# Test results published in PubChem BioAssay AID977607 (Broad Institute, 2014).
# “And” between values parts separate entries of the source, which are not always exact repeats. Equal values may be shown once.
# Tested on: INS-1E GLuc insulin secretion reporter, luminescence, 2-3 h
# Assay: activators of glucose-dependent insulin secretion, dose response, cell-based, INS-1E, Gaussia luciferase, luminescence, cherry-pick, set 2 (AID 977607)
row,SMILES,AC40
1,Cc1cccc(-c2ccc(C3[C@@H]4CN(Cc5cccc(F)c5)C[C@H]3N4)cc2)c1 (stereo not given in full),12.3 µM and 2.97 µM
2,CC1CCN(S(=O)(=O)c2ccc(C(=O)OCc3ccc4c(c3)OCO4)cc2)CC1,13.4 µM
3,O=C(Nc1nnc(-c2ccccc2SCc2ccccc2F)s1)Nc1ccccc1F,16.7 µM
4,N#Cc1cccc(-c2ccc([C@@H]3[C@@H]4CN(S(=O)(=O)c5ccc(-c6ccccc6)cc5)C[C@H]3N4)cc2)c1,3.49 µM
5,COc1nc(-c2ccc(Cl)cc2)ccc1-c1noc(-c2ccco2)n1,19.5 µM
6,CCOc1ccc2nc(NCCNC(=O)Nc3ccccc3)c(C#N)cc2c1,5.63 µM
7,Cc1ccc(-n2nc3ccc(NC(=O)c4ccco4)cc3n2)cc1,10.8 µM
8,CN(C)CCCNc1cc(C(C)(C)C)nc2c(-c3ccc(Cl)cc3)cnn12,7.08 µM
9,CC(C)C(Cl)=NOC(=O)Nc1ccc(S(N)(=O)=O)cc1,10.2 µM
10,CC(C)(C)c1ccc(OCC(=O)Nc2ccc(-c3nc4cccnc4o3)cc2)cc1,9.2 µM
11,COc1ccc(C2=NN(C(=O)CCCC(=O)O)C(c3cccs3)C2)cc1OC (stereo not given),11.6 µM
12,C(=C\c1ccc(C2[C@@H]3CN(Cc4nccs4)C[C@H]2N3)cc1)/c1ccccc1 (stereo not given in full),17 µM
13,CCCCc1c(Cc2cccc(F)c2)ncn1CCc1ccccc1OC,12.3 µM
14,CCOc1ccc(/C=N/NC(=O)c2cc(-c3ccco3)nc3ccccc23)cc1,8.25 µM
15,Cc1ccc(CNc2nc(NCc3ccccc3)nc3ccsc23)c(C)c1,19.2 µM
16,OC(c1ccccc1)(c1ccccc1)C1CCN(CCCOc2cccc(OC(F)(F)F)c2)CC1,5.24 µM
17,CN1CCN(C2Cc3ccccc3Sc3cc(C(F)(F)F)ccc32)CC1 (stereo not given),16 µM
18,C[C@H]1CN([C@@H](C)CO)S(=O)(=O)c2ccc(C#Cc3ccccc3)cc2O[C@@H]1CN(C)C(=O)CN(C)C,28 µM
19,CCC(=O)Nc1ccc(NC(=S)NC(=O)c2oc3ccccc3c2C)cc1,5.76 µM
20,COCCNc1nc(Oc2cncc(Cl)c2)c2sccc2n1,2.88 µM
